Test results: article PMC9376956, “Optimization of Covalent MKK7 Inhibitors via Crude Nanomole-Scale Libraries” (Journal of Medicinal Chemistry, 2022)
Like-named read-outs stand apart in the source and are kept apart here.

What was measured:
[1] = tested on: phosphorylated c-Jun (p-c-Jun) in U2OS cells; experiment: Dose-response western blot of c-Jun phosphorylation in sorbitol-treated U2OS cells; type: cell-based; details: sorbitol 0.2 M, read-out: cellular EC50, c-Jun phosphorylation inhibition
Procedure: U2OS cells were incubated a day before the experiment in a six-well plate. On the day of the experiment, the cells underwent media change and were incubated with the compound containing 0.1% DMSO, or DMSO only, for 80 min. Sorbitol was then added to the concentration of 0.2 M for 40 min, except for an “untreated” well. After 40 min, the cells were harvested using Trypsin B and were washed with ice-cold PBS. The cells were lysed using a mixture of 50 μL of RIPA buffer (Sigma; R0278) and a protease inhibitor (Sigma; P8340) for 20 min, in which every 5 min, the cells undergo a 5 s vortex. After 20 min, cell lysates underwent a 20 min centrifuge at 4 °C at 21,000 rpm. The lysates were then separated from the cell membrane remains. Protein concentration was determined by the BCA analysis, and 35 μg of protein was taken from each sample, supplemented with 4× loading buffer that has 0.02 mM DTT, and heated for 10 min at 70 °C. […] The membrane was washed again with TBS-T three times for 10 min and reincubated with the blocking buffer for 30 min. […] The protocol repeats itself, using an anti-mouse HRP secondary antibody instead.
Quantification was done using ImageJ software.

[2] = target: T1, MKK7 (Homo sapiens, UniProt O14733); experiment: Intact protein LC/MS labeling of recombinant MKK7; details: 2 μM compound, 2 μM protein, 5 μM ATP, 5 mM MgCl2, 10 min, 4 °C
T1 sequence (O14733 117-419 limits assumed): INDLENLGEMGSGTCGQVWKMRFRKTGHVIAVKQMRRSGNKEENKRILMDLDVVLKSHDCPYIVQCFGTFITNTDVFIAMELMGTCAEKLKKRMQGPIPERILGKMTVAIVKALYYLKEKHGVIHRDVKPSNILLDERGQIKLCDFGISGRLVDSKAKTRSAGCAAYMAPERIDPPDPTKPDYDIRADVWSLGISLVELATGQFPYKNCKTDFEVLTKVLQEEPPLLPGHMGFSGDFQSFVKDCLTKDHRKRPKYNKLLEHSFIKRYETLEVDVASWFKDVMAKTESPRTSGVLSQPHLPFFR

[3] = tested on: p-JNK; design: method as in PMID 30768270; details: read-out: EC50 in cells; cited from earlier work
[4] = tested on: MKK7; details: read-out: in vitro IC50; cited from earlier work
[5] = design: method as in PMID 30768270; details: human liver microsome; cited from earlier work
[6] = target: T2, MKK7 (Homo sapiens, UniProt O14733); experiment: In vitro kinase activity assay (Nanosyn), MKK7 coupled with inactive JNK1; type: biochemical; details: MKK7 1 nM, 2 h preincubation, 2 μM ATP
T2 construct: purchased Nanosyn, Santa Clara, CA (assay service)
T2 sequence (O14733 1-419): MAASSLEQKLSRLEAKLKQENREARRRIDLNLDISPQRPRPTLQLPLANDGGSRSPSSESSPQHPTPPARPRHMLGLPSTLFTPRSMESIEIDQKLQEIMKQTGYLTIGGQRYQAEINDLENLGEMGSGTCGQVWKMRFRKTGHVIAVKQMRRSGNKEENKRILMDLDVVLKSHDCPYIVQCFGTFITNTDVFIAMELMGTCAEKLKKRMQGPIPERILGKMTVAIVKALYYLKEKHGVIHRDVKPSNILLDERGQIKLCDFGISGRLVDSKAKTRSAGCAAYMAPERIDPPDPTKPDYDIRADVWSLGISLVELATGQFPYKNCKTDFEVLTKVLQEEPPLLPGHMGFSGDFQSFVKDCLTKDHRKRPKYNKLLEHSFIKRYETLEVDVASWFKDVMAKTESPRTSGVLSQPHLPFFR

[7] = target: T3, JNK (Homo sapiens, UniProt P45983); experiment: Coupled JNK/MKK7 in vitro kinase activity assay, second phase of biphasic curve; type: biochemical; details: second sigmoid of biphasic curve, higher concentrations
T3 construct: purchased Nanosyn, Santa Clara, CA (assay service)
T3 sequence (P45983 whole entry): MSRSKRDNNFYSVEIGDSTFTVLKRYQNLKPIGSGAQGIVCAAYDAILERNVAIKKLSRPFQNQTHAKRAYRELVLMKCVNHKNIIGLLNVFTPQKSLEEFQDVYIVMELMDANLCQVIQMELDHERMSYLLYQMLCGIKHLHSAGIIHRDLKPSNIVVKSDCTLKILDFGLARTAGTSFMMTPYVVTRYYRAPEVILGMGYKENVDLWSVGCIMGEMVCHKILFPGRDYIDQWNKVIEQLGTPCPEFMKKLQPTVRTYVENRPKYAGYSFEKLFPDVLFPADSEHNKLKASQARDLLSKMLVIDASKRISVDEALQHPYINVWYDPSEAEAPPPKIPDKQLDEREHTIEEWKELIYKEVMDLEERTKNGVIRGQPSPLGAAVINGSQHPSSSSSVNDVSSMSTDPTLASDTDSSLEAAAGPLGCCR
Procedure: Test compounds were diluted in DMSO to a final concentration that ranged from 10 μM to 0.0565 nM, while the final concentration of DMSO in all assays was kept at 1%. The reference compound, Staurosporine, was tested in a similar manner as a positive control. […] After incubation (17 h), the activity of JNK1 activated by MKK7 was tested in the presence of 30 μM ATP.
Figure S11. A model of compound 1e based on the co-crystal structure of MKK7 in complex with
Note that the side-chains were not remodeled and may in fact adopt
a rotamer that places closer to the hydroxy moiety.
Figure S12. Biphasic in vitro kinase inhibition behavior by alkyne 2. In a coupled JNK/ MKK7 in
Each sigmoidal curve can be
(1 picture or pasted object on this page, not shown here)

[8] = design: method as in PMID 30768270; details: PAMPA; cited from earlier work

| Structure (SMILES) | EC50 ([1]; Homo sapiens, U2OS) [µM] | IC50 [6] [µM] | also measured |
| --- | --- | --- | --- |
| C=CC(=O)N1CCC[C@@H](n2nc(-c3cn(-c4ccc(Cl)cc4O)nn3)c3c(N)ncnc32)C1 [1d, (R)-1-(3-(4-Amino-3-(1-(4-chloro-2-hydroxyphenyl)-1H-1,2,3-triazol-4-yl)-1H-pyrazolo[3,4-d]pyrimidin-1-yl)piperidin-1-yl)prop-2-en-1-one] | 1.09 | – | – |
| C=CC(=O)N1CCC[C@@H](n2nc(-c3cn(C[C@H](O)c4ccc(Br)cc4)nn3)c3c(N)ncnc32)C1 [1e, 1-((R)-3-(4-Amino-3-(1-((R)-2-(4-bromophenyl)-2-hydroxy-ethyl)-1H-1,2,3-triazol-4-yl)-1H-pyrazolo[3,4-d]pyrimidin-1-yl)piperidin-1-yl)prop-2-en-1-one] | > 0.5 | – | – |
| C=CC(=O)N1CCC[C@@H](n2nc(-c3cn(-c4ccc(C(C)=O)cc4)nn3)c3c(N)ncnc32)C1 [1g] | – | – | % MKK7 labeling [2]: 89%; EC50 [3]: ~0.4 µM; IC50 [4]: 0.01 µM; CL HLM [5]: 0.154 µL/min/mg |
| C=CC(=O)N1CCC[C@@H](n2nc(-c3cn(CC(F)(F)c4ccccc4)nn3)c3c(N)ncnc32)C1 [1k, (R)-1-(3-(4-Amino-3-(1-(2,2-difluoro-2-phenylethyl)-1H-1,2,3-triazol-4-yl)-1H-pyrazolo[3,4-d]pyrimidin-1-yl)piperidin-1-yl)prop-2-en-1-one] | 0.265 | 0.004 | – |
| C=CC(=O)Nc1cc(C(=O)NCc2cn([C@@H]3CCCC[C@H]3OC)nn2)cc(-c2n[nH]c3ccccc23)c1 [2a, rac-3-Acrylamido-5-(1H-indazol-3-yl)-N-((1-((trans-)-2-methoxycyclohexyl)-1H-1,2,3-triazol-4-yl)methyl)benzamide] | > 10 | 0.03 | – |
| C=CC(=O)Nc1cc(C(=O)NCc2cn(-c3ccccc3C)nn2)cc(-c2n[nH]c3ccccc23)c1 [2b, 3-Acrylamido-5-(1H-indazol-3-yl)-N-((1-(o-tolyl)-1H-1,2,3-triazol-4-yl)methyl)benzamide] | ~3 | – | EC50 [1]: < 3 µM |
| C=CC(=O)Nc1cc(C(=O)NCc2cn(C3CCC3)nn2)cc(-c2n[nH]c3ccccc23)c1 [2c, 3-Acrylamido-N-((1-cyclobutyl-1H-1,2,3-triazol-4-yl)methyl)-5-(1H-indazol-3-yl)benzamide] | > 5 | – | – |
| C=CC(=O)Nc1cc(C(=O)NCc2cn(CCOC)nn2)cc(-c2n[nH]c3ccccc23)c1 [2d, 3-Acrylamido-5-(1H-indazol-3-yl)-N-((1-(2-methoxyethyl)-1H-1,2,3-triazol-4-yl)methyl)benzamide] | – | – | % MKK7 labeling [2]: 100% |
| C#Cc1nn([C@@H]2CCCN(C(=O)C=C)C2)c2ncnc(N)c12 [compound 1] | > 10 | 0.03 | – |
| C#CCNC(=O)c1cc(NC(=O)C=C)cc(-c2n[nH]c3ccccc23)c1 [compound 2, 3-Acrylamido-5-(1H-indazol-3-yl)-N-(prop-2-yn-1-yl)benzamide] | < 0.1 | 0.0006 | IC50 [7]: 1.97 µM; % MKK7 labeling [2]: 100% |
| C=CC(=O)N1CCC[C@@H](n2nc(-c3ccc(Oc4ccccc4)cc3)c3c(N)ncnc32)C1 [ibrutinib] | – | – | permeability [8]: 38 %flux |
